Test results taken from the NIST ThermoML archive (doi:10.1021/je100693c).

Legend:
[1] = xn = mol fraction of the nth substance listed; details: 101 kPa, Liquid, Vibrating tube method
[2] = excess molar enthalpy (molar enthalpy of mixing); xn = mol fraction of the nth substance listed; details: 101 kPa, Liquid

OCC(F)(F)F [2,2,2-trifluoroethanol] + CCCCn1cc[n+](C)c1.F[B-](F)(F)F
Details	excess molar enthalpy [kcal/mol]	mass density [kg/m3]
[1], 283.15 K, x2 = 0	–	1408.2
[1], 283.15 K, x2 = 0.1032	–	1360.8
[1], 283.15 K, x2 = 0.2129	–	1322.2
[1], 283.15 K, x2 = 0.299	–	1299.8
[1], 283.15 K, x2 = 0.4022	–	1279.1
[1], 283.15 K, x2 = 0.5028	–	1262.9
[1], 283.15 K, x2 = 0.5808	–	1252.3
[1], 283.15 K, x2 = 0.6912	–	1239.6
[1], 283.15 K, x2 = 0.8062	–	1228.5
[1], 283.15 K, x2 = 0.8945	–	1221.2
[1], 293.15 K, x2 = 0	–	1391.1
[1], 293.15 K, x2 = 0.1032	–	1346.9
[1], 293.15 K, x2 = 0.2129	–	1310.1
[1], 293.15 K, x2 = 0.299	–	1288.8
[1], 293.15 K, x2 = 0.4022	–	1269
[1], 293.15 K, x2 = 0.5028	–	1253.4
[1], 293.15 K, x2 = 0.5808	–	1243.3
[1], 293.15 K, x2 = 0.6912	–	1231.2
[1], 293.15 K, x2 = 0.8062	–	1220.5
[1], 293.15 K, x2 = 0.8945	–	1213.3
[1], 303.15 K, x2 = 0	–	1373.8
[1], 303.15 K, x2 = 0.1032	–	1332.9
[1], 303.15 K, x2 = 0.2129	–	1298.1
[1], 303.15 K, x2 = 0.299	–	1277.9
[1], 303.15 K, x2 = 0.4022	–	1259.1
[1], 303.15 K, x2 = 0.5028	–	1244.3
[1], 303.15 K, x2 = 0.5808	–	1234.6
[1], 303.15 K, x2 = 0.6912	–	1223.1
[1], 303.15 K, x2 = 0.8062	–	1212.8
[1], 303.15 K, x2 = 0.8945	–	1205.8
[1], 313.15 K, x2 = 0	–	1356.1
[1], 313.15 K, x2 = 0.1032	–	1319
[1], 313.15 K, x2 = 0.2129	–	1286.1
[1], 313.15 K, x2 = 0.299	–	1267
[1], 313.15 K, x2 = 0.4022	–	1249.4
[1], 313.15 K, x2 = 0.5028	–	1235.2
[1], 313.15 K, x2 = 0.5808	–	1226
[1], 313.15 K, x2 = 0.6912	–	1215
[1], 313.15 K, x2 = 0.8062	–	1205.1
[1], 313.15 K, x2 = 0.8945	–	1198.3
[1], 323.15 K, x2 = 0	–	1338
[1], 323.15 K, x2 = 0.1032	–	1304.9
[1], 323.15 K, x2 = 0.2129	–	1274.3
[1], 323.15 K, x2 = 0.299	–	1256.4
[1], 323.15 K, x2 = 0.4022	–	1239.7
[1], 323.15 K, x2 = 0.5028	–	1226.4
[1], 323.15 K, x2 = 0.5808	–	1217.5
[1], 323.15 K, x2 = 0.6912	–	1207
[1], 323.15 K, x2 = 0.8062	–	1197.6
[1], 323.15 K, x2 = 0.8945	–	1190.9
[1], 333.15 K, x2 = 0	–	1319.1
[1], 333.15 K, x2 = 0.1032	–	1290.6
[1], 333.15 K, x2 = 0.2129	–	1262.4
[1], 333.15 K, x2 = 0.299	–	1245.8
[1], 333.15 K, x2 = 0.4022	–	1230
[1], 333.15 K, x2 = 0.5028	–	1217.4
[1], 333.15 K, x2 = 0.5808	–	1209
[1], 333.15 K, x2 = 0.6912	–	1199.1
[1], 333.15 K, x2 = 0.8062	–	1190.1
[1], 333.15 K, x2 = 0.8945	–	1183.6
[2], 298.15 K, x2 = 0.0878	0.174	–
[2], 298.15 K, x2 = 0.1614	0.279	–
[2], 298.15 K, x2 = 0.2042	0.305	–
[2], 298.15 K, x2 = 0.2779	0.318	–
[2], 298.15 K, x2 = 0.3392	0.302	–
[2], 298.15 K, x2 = 0.3908	0.289	–
[2], 298.15 K, x2 = 0.435	0.273	–
[2], 298.15 K, x2 = 0.5065	0.238	–
[2], 298.15 K, x2 = 0.6581	0.162	–
[2], 298.15 K, x2 = 0.6919	0.145	–
[2], 298.15 K, x2 = 0.7549	0.119	–
[2], 298.15 K, x2 = 0.8089	0.0909	–
[2], 298.15 K, x2 = 0.9059	0.0403	–
[2], 323.15 K, x2 = 0.0459	0.0433	–
[2], 323.15 K, x2 = 0.1137	0.113	–
[2], 323.15 K, x2 = 0.2042	0.168	–
[2], 323.15 K, x2 = 0.2779	0.179	–
[2], 323.15 K, x2 = 0.3461	0.173	–
[2], 323.15 K, x2 = 0.435	0.154	–
[2], 323.15 K, x2 = 0.5359	0.128	–
[2], 323.15 K, x2 = 0.6062	0.108	–
[2], 323.15 K, x2 = 0.6978	0.079	–
[2], 323.15 K, x2 = 0.822	0.0433	–
[2], 323.15 K, x2 = 0.885	0.0286	–
